Test results as given in ChEMBL document CHEMBL1201862, “PubChem BioAssay data set” (2004).
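Test compounds were applied to cells in 96-well plates for 48 hours at 5 doses. At the GI50, growth is halved.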 Calls of active or inactive are those of the source. Rule as the data show it: active = GI50 up to about 1.1 µM and inactive = higher.

Columns and labels:
Test in all cases: NCI tumour cell line growth inhibition, 48 h
K562 = system: K562
EKVX = system: EKVX
Malme-3M = system: Malme-3M
LOX IMVI = system: LOX IMVI
RXF 393 = system: RXF 393
OVCAR-5 = system: OVCAR-5
SK-OV-3 = system: SK-OV-3
OVCAR-4 = system: OVCAR-4
KM12 = system: KM12
HL-60 = system: HL-60
NCI-H23 = system: NCI-H23
SF-539 = system: SF-539
MOLT-4 = system: MOLT-4
IGROV-1 = system: IGROV-1
TK-10 = system: TK-10
UACC-62 = system: UACC-62
NCI-H226 = system: NCI-H226
SN12C = system: SN12C
BT-549 = system: BT-549
MDA-N = system: MDA-N

| SMILES | GI50 (K562) | GI50 (EKVX) | GI50 (Malme-3M) | GI50 (LOX IMVI) | GI50 (RXF 393) | GI50 (OVCAR-5) | GI50 (SK-OV-3) | GI50 (OVCAR-4) | GI50 (KM12) | GI50 (HL-60) | GI50 (NCI-H23) | GI50 (SF-539) | GI50 (MOLT-4) | GI50 (IGROV-1) | GI50 (TK-10) | GI50 (UACC-62) | GI50 (NCI-H226) | GI50 (SN12C) | GI50 (BT-549) | GI50 (MDA-N) |
| --- | --- | --- | --- | --- | --- | --- | --- | --- | --- | --- | --- | --- | --- | --- | --- | --- | --- | --- | --- | --- |
| Cn1c2ccccc2c(=NNc2ccc(S(=O)(=O)N=C(N)N)cc2)c2ccccc21 | 4.39 µM (inactive) | 5.57 µM (inactive) | 8.26 µM (inactive) | 5.02 µM (inactive) | 0.611 µM (active) | 6.24 µM (inactive) | 8.93 µM (inactive) | 3.37 µM (inactive) | 7.98 µM (inactive) | 14.1 µM (inactive) | 9.64 µM (inactive) | 13.8 µM (inactive) | 3.31 µM (inactive) | 11.7 µM (inactive) | 7.6 µM (inactive) | 15.4 µM (inactive) | 4.49 µM (inactive) | 8.63 µM (inactive) | 9.42 µM (inactive) | 12.4 µM (inactive) |
| CC(=O)OC12CC(C(F)(F)F)(C(F)(F)F)OC1(OC(C)=O)CC(C(F)(F)F)(C(F)(F)F)O2 (configuration not stated) | 0.612 µM (active) | – | 4.86 µM (inactive) | 1.73 µM (inactive) | 11.5 µM (inactive) | 9.29 µM (inactive) | 4.94 µM (inactive) | 4.23 µM (inactive) | 2.33 µM (inactive) | 1.89 µM (inactive) | 1.23 µM (inactive) | 2.07 µM (inactive) | 1.06 µM (active) | 1.41 µM (inactive) | 8.28 µM (inactive) | 2.66 µM (inactive) | 6.17 µM (inactive) | 4.66 µM (inactive) | 5.42 µM (inactive) | 5.92 µM (inactive) |
| CCOC(=O)/C(=C\NCC(OCC)OCC)c1nc2ccccc2[nH]1 | 22.8 µM (inactive) | 27.6 µM (inactive) | 25.8 µM (inactive) | 24.8 µM (inactive) | 35.3 µM (inactive) | 48.6 µM (inactive) | 75 µM (inactive) | 31.9 µM (inactive) | 32.1 µM (inactive) | 23.9 µM (inactive) | 21.4 µM (inactive) | 26.2 µM (inactive) | 17.1 µM (inactive) | 29 µM (inactive) | 31.3 µM (inactive) | 16.3 µM (inactive) | 37.7 µM (inactive) | 39.2 µM (inactive) | 22.4 µM (inactive) | 29 µM (inactive) |
| Cn1c([N+](=O)[O-])cnc1CN1CCN(CCO)CC1 | > 100 µM (inactive) | > 100 µM (inactive) | > 100 µM (inactive) | > 100 µM (inactive) | > 100 µM (inactive) | > 100 µM (inactive) | > 100 µM (inactive) | > 100 µM (inactive) | > 100 µM (inactive) | > 100 µM (inactive) | > 100 µM (inactive) | > 100 µM (inactive) | > 100 µM (inactive) | > 100 µM (inactive) | > 100 µM (inactive) | > 100 µM (inactive) | > 100 µM (inactive) | > 100 µM (inactive) | > 100 µM (inactive) | > 100 µM (inactive) |
| Cc1c(C)c(C)c(CSC(=N)N)c(C)c1C | 12.2 µM (inactive) | 14.8 µM (inactive) | 15.9 µM (inactive) | 26.2 µM (inactive) | 17.5 µM (inactive) | 14.5 µM (inactive) | 16 µM (inactive) | 15.6 µM (inactive) | 18.4 µM (inactive) | 8.57 µM (inactive) | 16.5 µM (inactive) | 15.7 µM (inactive) | 15.5 µM (inactive) | 33.6 µM (inactive) | 14.8 µM (inactive) | 11.9 µM (inactive) | 13.6 µM (inactive) | 16.3 µM (inactive) | 16.4 µM (inactive) | 16.9 µM (inactive) |
| c1ccc2cc(CNCCOCCOCCNCc3ccc4ccccc4c3)ccc2c1 | 0.446 µM (active) | 2.54 µM (inactive) | 1.76 µM (inactive) | 1.46 µM (inactive) | 1.78 µM (inactive) | 1.9 µM (inactive) | 3.13 µM (inactive) | 2.47 µM (inactive) | 1.6 µM (inactive) | 1.85 µM (inactive) | 2 µM (inactive) | 1.85 µM (inactive) | 1.92 µM (inactive) | 1.7 µM (inactive) | 1.62 µM (inactive) | 2.06 µM (inactive) | 2.09 µM (inactive) | 2.16 µM (inactive) | 1.78 µM (inactive) | 1.65 µM (inactive) |
| c1ccc(COCC23CCN(Cc4ccccc4)C(CC(OCc4ccccc4)C2)S3)cc1 (configuration not stated) | 31 µM (inactive) | 49 µM (inactive) | 29.7 µM (inactive) | 19.3 µM (inactive) | > 100 µM (inactive) | 38.2 µM (inactive) | > 100 µM (inactive) | 53.1 µM (inactive) | 44.1 µM (inactive) | 19.5 µM (inactive) | 31.4 µM (inactive) | > 100 µM (inactive) | 25.6 µM (inactive) | > 100 µM (inactive) | – | 52.4 µM (inactive) | 97.3 µM (inactive) | 57.9 µM (inactive) | 42.6 µM (inactive) | 50.9 µM (inactive) |
| Cn1cc(-c2n[nH]c(-c3ccc(Cl)cc3)nc2=O)c2ccccc21 | 0.544 µM (active) | 4.41 µM (inactive) | 3.44 µM (inactive) | 5.64 µM (inactive) | 2.4 µM (inactive) | 4.34 µM (inactive) | 4.31 µM (inactive) | 15.1 µM (inactive) | 0.776 µM (active) | 0.671 µM (active) | 4.28 µM (inactive) | 1.08 µM (active) | 1.6 µM (inactive) | 4.58 µM (inactive) | 11.8 µM (inactive) | 1.73 µM (inactive) | 3.84 µM (inactive) | 6.34 µM (inactive) | 5.57 µM (inactive) | 0.399 µM (active) |
| N#Cc1c(-c2cccc(Cl)c2)cc(-c2ccc(Cl)cc2)nc1N | 34.4 µM (inactive) | 15.6 µM (inactive) | 28.1 µM (inactive) | 17.1 µM (inactive) | 16.7 µM (inactive) | 21.7 µM (inactive) | 18.3 µM (inactive) | 15.7 µM (inactive) | 25.2 µM (inactive) | 38.1 µM (inactive) | 17.5 µM (inactive) | 17.8 µM (inactive) | 19 µM (inactive) | 10.1 µM (inactive) | 19.7 µM (inactive) | 16.5 µM (inactive) | 16.3 µM (inactive) | 17.3 µM (inactive) | 18.6 µM (inactive) | 20 µM (inactive) |
| O=c1c(C(c2ccc(/C=C/c3ccccc3)cc2)c2c(O)oc3cc(O)ccc3c2=O)c(O)oc2cc(O)ccc12 | 91.4 µM (inactive) | > 100 µM (inactive) | > 100 µM (inactive) | 36.7 µM (inactive) | > 100 µM (inactive) | > 100 µM (inactive) | > 100 µM (inactive) | > 100 µM (inactive) | > 100 µM (inactive) | 27.5 µM (inactive) | > 100 µM (inactive) | > 100 µM (inactive) | 20.9 µM (inactive) | > 100 µM (inactive) | > 100 µM (inactive) | > 100 µM (inactive) | > 100 µM (inactive) | 48.4 µM (inactive) | 98.9 µM (inactive) | 53.5 µM (inactive) |
| CC1(CC(=O)O)OC2CCCCCC2O1.NCc1ccccc1 (configuration not stated) | 57.8 µM (inactive) | 20.2 µM (inactive) | > 100 µM (inactive) | > 100 µM (inactive) | > 100 µM (inactive) | > 100 µM (inactive) | > 100 µM (inactive) | > 100 µM (inactive) | 64.6 µM (inactive) | > 100 µM (inactive) | > 100 µM (inactive) | > 100 µM (inactive) | > 100 µM (inactive) | > 100 µM (inactive) | > 100 µM (inactive) | > 100 µM (inactive) | > 100 µM (inactive) | > 100 µM (inactive) | > 100 µM (inactive) | 73.8 µM (inactive) |
| CC(C)(C)c1cc(OCc2nnc3sc(-c4ccc(Cl)cc4)nn23)c(Cl)cc1OCc1nnc2sc(-c3ccc(Cl)cc3)nn12 | 1.95 µM (inactive) | 13.1 µM (inactive) | 2.93 µM (inactive) | 5.04 µM (inactive) | 2.81 µM (inactive) | 29.7 µM (inactive) | 4.06 µM (inactive) | 3.98 µM (inactive) | 2.47 µM (inactive) | 2.46 µM (inactive) | 4.94 µM (inactive) | 2.57 µM (inactive) | 4.93 µM (inactive) | 3.82 µM (inactive) | 8.47 µM (inactive) | 4.45 µM (inactive) | 17.3 µM (inactive) | 10.2 µM (inactive) | 4.7 µM (inactive) | 0.644 µM (active) |
| CC(=O)OC1CCn2c1nc1c2C(=O)C=C(N2CC2)C1=O (configuration not stated) | 0.394 µM (active) | 1.02 µM (active) | 0.0311 µM (active) | 0.0719 µM (active) | 0.0748 µM (active) | 0.774 µM (active) | 2.15 µM (inactive) | 0.0746 µM (active) | – | 0.17 µM (active) | 0.269 µM (active) | 0.22 µM (active) | 0.033 µM (active) | 0.449 µM (active) | 0.292 µM (active) | 0.0697 µM (active) | 1.86 µM (inactive) | 0.65 µM (active) | 1.27 µM (inactive) | 0.332 µM (active) |
| COc1ccc2nc3cc(Cl)ccc3c(NCCNC(=O)Cn3c(=O)n(C)c(=O)c4c3nc3c(c(=O)n(C)c(=O)n3C)[n+]4[O-])c2c1 | 46.8 µM (inactive) | 34.7 µM (inactive) | 37.2 µM (inactive) | 38.3 µM (inactive) | 42.1 µM (inactive) | > 72.8 µM (inactive) | 32.1 µM (inactive) | > 64.7 µM (inactive) | 61.8 µM (inactive) | > 100 µM (inactive) | 21.2 µM (inactive) | 23.7 µM (inactive) | 22.9 µM (inactive) | 19.1 µM (inactive) | 29 µM (inactive) | > 38.3 µM (inactive) | 35.6 µM (inactive) | 36.7 µM (inactive) | 23 µM (inactive) | 46.3 µM (inactive) |
